Where a SMILES comes first, the peptide text is derived from it. Bridges are numbered along the chain shown (N, C = ends). [ ]: non-standard residue; d: D form. The star is where a group is joined. ξ: configuration not given here. Phe(4-COOH) = N[C@@H](Cc1ccc(C(=O)O)cc1)C(=O)O; Bip = N[C@@H](Cc1ccc(-c2ccccc2)cc1)C(=O)O; Phe(3-Me) = Cc1cccc(C[C@H](N)C(=O)O)c1; 4Pal = N[C@@H](Cc1ccncc1)C(=O)O; Cha = N[C@@H](CC1CCCCC1)C(=O)O; Ile(3ξ) = CCC(C)[C@H](N)C(=O)O; Tle = CC(C)(C)[C@H](N)C(=O)O; Carboxymethyl = O=C(O)C*; Orn = NCCC[C@H](N)C(=O)O; Dab = NCC[C@H](N)C(=O)O; Aib = CC(C)(N)C(=O)O

Here are results for 13 molecules from US20250163104A1, “MACROCYCLIC IMMUNOMODULATORS” (priority 2021, published 2025).

The target in the assay is T1, human PD-1 / PD-L1-Ig binding on Jurkat cell line over-expressing human PD-1 (Jurkat-PD-1) (Homo sapiens, UniProt Q15116).
T1 construct: expressed in transfected cells; host or cells: Jurkat
T1 sequence (Q15116 25-288): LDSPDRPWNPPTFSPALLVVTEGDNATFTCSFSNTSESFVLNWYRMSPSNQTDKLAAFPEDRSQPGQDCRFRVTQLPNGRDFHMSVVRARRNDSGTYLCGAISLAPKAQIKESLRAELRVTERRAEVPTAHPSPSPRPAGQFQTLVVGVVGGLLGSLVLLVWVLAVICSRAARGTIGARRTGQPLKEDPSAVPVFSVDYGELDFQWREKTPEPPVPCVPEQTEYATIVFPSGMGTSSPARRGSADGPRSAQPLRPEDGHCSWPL
Description: Jurkat-PD-1 Cell Binding High-Content Screening Assay (CBA). The format is cell-based. The conditions noted are these: Jurkat-PD-1 cells, PE-labeled PD-L1-Ig 20 nM final; read-out: Jurkat HPD1_PDL1 IC50. In short, it runs like this:
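Jurkat-hPD-1 cells in DMEM with 10% fetal calf serum receive test compound and are held at 37° C for 2 h. PE-labeled PD-L1-Ig is added at 20 nM final and left for 1 hour. Cells are then fixed and Hoechst-stained, and binding is measured by imaging.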
On to `Cc1cccc(C[C@@H]2NC(=O)[C@H](CC(=O)O)NC(=O)[C@H](Cc3ccc(C(=O)O)cc3)NC(=O)[C@H](Cc3ccncc3)NC(=O)CSC[C@@H](C(=O)N[C@@H](CCN)C(N)=O)NC(=O)[C@H](CO)NC(=O)[C@H](C(C)(C)C)NC(=O)[C@H](CC3CCCCC3)NC(=O)[C@H](CCN)NC(=O)[C@@H](CC(C)C)NC(=O)[C@H](CCCN)NC(=O)[C@H](Cc3ccc(OCC(=O)O)cc3)NC(=O)[C@H](Cc3ccc(-c4ccccc4)cc3)NC(=O)[C@H](Cc3ccc(OCC(=O)O)cc3)NC2=O)c1` [Compound 2294] ({CH2CO}-[4Pal][Phe(4-COOH)]D[Phe(3-Me)]Y(Carboxymethyl)[Bip]Y(Carboxymethyl)[Orn][dL][Dab][Cha][Tle]SC[Dab]-NH2; thioether N-14), for which the IC50 is 9.4 nM.
For `Cc1cccc(C[C@@H]2NC(=O)[C@H](CC(=O)O)NC(=O)[C@H](Cc3ccc(C(=O)O)cc3)NC(=O)[C@H](Cc3ccncc3)NC(=O)CSC[C@@H](C(=O)N[C@@H](CO)C(N)=O)NC(=O)[C@H](CO)NC(=O)[C@H](C(C)C)NC(=O)[C@H](CC3CCCCC3)NC(=O)[C@H](CCN)NC(=O)[C@@H](CC(C)C)NC(=O)[C@H](CCCN)NC(=O)[C@H](Cc3ccc(OCC(=O)O)cc3)NC(=O)[C@H](Cc3ccc(-c4ccccc4)cc3)NC(=O)[C@H](Cc3ccc(OCC(=O)O)cc3)NC2=O)c1` [Compound 2295] ({CH2CO}-[4Pal][Phe(4-COOH)]D[Phe(3-Me)]Y(Carboxymethyl)[Bip]Y(Carboxymethyl)[Orn][dL][Dab][Cha]VSCS-NH2; thioether N-14), the IC50 was 11.7 nM.
For `Cc1cccc(C[C@@H]2NC(=O)[C@H](CC(=O)O)NC(=O)[C@H](Cc3ccc(C(=O)O)cc3)NC(=O)[C@H](Cc3ccncc3)NC(=O)CSC[C@@H](C(=O)NC(C)(C)C(N)=O)NC(=O)[C@H](CO)NC(=O)[C@H](C(C)C)NC(=O)[C@H](CC3CCCCC3)NC(=O)[C@H](CCN)NC(=O)[C@@H](CC(C)C)NC(=O)[C@H](CCCN)NC(=O)[C@H](Cc3ccc(OCC(=O)O)cc3)NC(=O)[C@H](Cc3ccc(-c4ccccc4)cc3)NC(=O)[C@H](Cc3ccc(OCC(=O)O)cc3)NC2=O)c1` [Compound 2296] ({CH2CO}-[4Pal][Phe(4-COOH)]D[Phe(3-Me)]Y(Carboxymethyl)[Bip]Y(Carboxymethyl)[Orn][dL][Dab][Cha]VSC[Aib]-NH2; thioether N-14), the IC50 amounted to 8.8 nM.
In the case of `CCC(C)[C@@H]1NC(=O)[C@H](Cc2ccc(-c3ccccc3)cc2)NC(=O)[C@H](C(C)C)NC(=O)[C@H](Cc2cccc(C)c2)NC(=O)[C@H](CC(=O)O)NC(=O)[C@H](Cc2ccc(C(=O)O)cc2)NC(=O)[C@H](Cc2ccncc2)NC(=O)CSC[C@@H](C(=O)N[C@@H](CC(N)=O)C(N)=O)NC(=O)[C@H]([C@@H](C)O)NC(=O)[C@H](C(C)C)NC(=O)[C@H](CC2CCCCC2)NC(=O)[C@H](CCN)NC(=O)[C@@H](CC(C)C)NC(=O)[C@H](CCCN)NC1=O` (stereo partly shown) [Compound 2297], the IC50 came out at 10.4 nM.
With `CCC(C)[C@@H]1NC(=O)[C@H](Cc2ccc(-c3ccccc3)cc2)NC(=O)[C@H](C(C)C)NC(=O)[C@H](Cc2cccc(C)c2)NC(=O)[C@H](CC(=O)O)NC(=O)[C@H](Cc2ccc(C(=O)O)cc2)NC(=O)[C@H](Cc2ccncc2)NC(=O)CSC[C@@H](C(=O)N[C@@H](CC(N)=O)C(N)=O)NC(=O)[C@H](CO)NC(=O)[C@H](C(C)C)NC(=O)[C@H](CC2CCCCC2)NC(=O)[C@H](CCN)NC(=O)[C@@H](CC(C)C)NC(=O)[C@H](CCCN)NC1=O` (stereo partly drawn) [Compound 2298] ({CH2CO}-[4Pal][Phe(4-COOH)]D[Phe(3-Me)]V[Bip][Ile(3ξ)][Orn][dL][Dab][Cha]VSCN-NH2; thioether N-14) the figure was 15.5 nM.
Take `CCC(C)[C@@H]1NC(=O)[C@H](Cc2ccc(-c3ccccc3)cc2)NC(=O)[C@H](C(C)C)NC(=O)[C@H](Cc2cccc(C)c2)NC(=O)[C@H](CC(=O)O)NC(=O)[C@H](Cc2ccc(C(=O)O)cc2)NC(=O)[C@H](Cc2ccncc2)NC(=O)CSC[C@@H](C(=O)N[C@@H](CC(N)=O)C(N)=O)NC(=O)[C@H]([C@@H](C)O)NC(=O)[C@H](C(C)C)NC(=O)[C@H](CC2CCCCC2)NC(=O)[C@H](CCN)NC(=O)[C@@H](CC(C)C)NC(=O)[C@H](CCCN)NC1=O` (stereo partly shown) [Compound 2299]: the IC50 amounted to 14.4 nM.
To `CCC(C)[C@@H]1NC(=O)[C@H](Cc2ccc(-c3ccccc3)cc2)NC(=O)[C@H](C(C)C)NC(=O)[C@H](Cc2cccc(C)c2)NC(=O)[C@H](CC(=O)O)NC(=O)[C@H](Cc2ccc(C(=O)O)cc2)NC(=O)[C@H](Cc2ccncc2)NC(=O)CSC[C@@H](C(=O)N[C@H](CC(N)=O)C(N)=O)NC(=O)[C@H](CO)NC(=O)[C@H](C(C)C)NC(=O)[C@H](CC2CCCCC2)NC(=O)[C@H](CCN)NC(=O)[C@@H](CC(C)C)NC(=O)[C@H](CCCN)NC1=O` (stereo partly drawn) [Compound 2300] ({CH2CO}-[4Pal][Phe(4-COOH)]D[Phe(3-Me)]V[Bip][Ile(3ξ)][Orn][dL][Dab][Cha]VSC[dN]-NH2; thioether N-14) belongs 13.4 nM; to `CCC(C)[C@@H]1NC(=O)[C@H](Cc2ccc(-c3ccccc3)cc2)NC(=O)[C@H](C(C)C)NC(=O)[C@H](Cc2cccc(C)c2)NC(=O)[C@H](CC(=O)O)NC(=O)[C@H](Cc2ccc(C(=O)O)cc2)NC(=O)[C@H](Cc2ccncc2)NC(=O)CSC[C@@H](C(=O)N[C@@H](CCN)C(N)=O)NC(=O)[C@H]([C@@H](C)O)NC(=O)[C@H](C(C)C)NC(=O)[C@H](CC2CCCCC2)NC(=O)[C@H](CCN)NC(=O)[C@@H](CC(C)C)NC(=O)[C@H](CCCN)NC1=O` (stereo partly shown) [Compound 2301], 14.8 nM.
`Cc1cccc(C[C@@H]2NC(=O)[C@H](CC(=O)O)NC(=O)[C@H](Cc3ccc(C(=O)O)cc3)NC(=O)[C@H](Cc3ccncc3)NC(=O)CSC[C@@H](C(=O)N[C@@H](CC(N)=O)C(N)=O)NC(=O)[C@H]([C@@H](C)O)NC(=O)[C@H](C(C)C)NC(=O)[C@H](CC3CCCCC3)NC(=O)[C@H](CCN)NC(=O)[C@@H](CC(C)C)NC(=O)[C@H](CCCN)NC(=O)[C@H](Cc3ccc(OCC(=O)O)cc3)NC(=O)[C@H](Cc3ccc(-c4ccccc4)cc3)NC(=O)[C@H](Cc3ccc(OCC(=O)O)cc3)NC2=O)c1` [Compound 2302] ({CH2CO}-[4Pal][Phe(4-COOH)]D[Phe(3-Me)]Y(Carboxymethyl)[Bip]Y(Carboxymethyl)[Orn][dL][Dab][Cha]VTCN-NH2; thioether N-14): the IC50 stood at 4 nM.
For the molecule `Cc1cccc(C[C@@H]2NC(=O)[C@H](CC(=O)O)NC(=O)[C@H](Cc3ccc(C(=O)O)cc3)NC(=O)[C@H](Cc3ccncc3)NC(=O)CSC[C@@H](C(=O)N[C@@H](CC(N)=O)C(N)=O)NC(=O)[C@H](CO)NC(=O)[C@H](C(C)C)NC(=O)[C@H](CC3CCCCC3)NC(=O)[C@H](CCN)NC(=O)[C@@H](CC(C)C)NC(=O)[C@H](CCCN)NC(=O)[C@H](Cc3ccc(OCC(=O)O)cc3)NC(=O)[C@H](Cc3ccc(-c4ccccc4)cc3)NC(=O)[C@H](Cc3ccc(OCC(=O)O)cc3)NC2=O)c1` [Compound 2303] ({CH2CO}-[4Pal][Phe(4-COOH)]D[Phe(3-Me)]Y(Carboxymethyl)[Bip]Y(Carboxymethyl)[Orn][dL][Dab][Cha]VSCN-NH2; thioether N-14), the IC50 was found to be 5.3 nM.
As to `Cc1cccc(C[C@@H]2NC(=O)[C@H](CC(=O)O)NC(=O)[C@H](Cc3ccc(C(=O)O)cc3)NC(=O)[C@H](Cc3ccncc3)NC(=O)CSC[C@@H](C(=O)N[C@@H](CC(N)=O)C(N)=O)NC(=O)[C@H](CCC(=O)O)NC(=O)[C@H](C(C)C)NC(=O)[C@H](CC3CCCCC3)NC(=O)[C@H](CCN)NC(=O)[C@@H](CC(C)C)NC(=O)[C@H](CCCN)NC(=O)[C@H](Cc3ccc(OCC(=O)O)cc3)NC(=O)[C@H](Cc3ccc(-c4ccccc4)cc3)NC(=O)[C@H](Cc3ccc(OCC(=O)O)cc3)NC2=O)c1` [Compound 2304] ({CH2CO}-[4Pal][Phe(4-COOH)]D[Phe(3-Me)]Y(Carboxymethyl)[Bip]Y(Carboxymethyl)[Orn][dL][Dab][Cha]VECN-NH2; thioether N-14), the IC50 was 15 nM.
Consider `Cc1cccc(C[C@@H]2NC(=O)[C@H](CC(=O)O)NC(=O)[C@H](Cc3ccc(C(=O)O)cc3)NC(=O)[C@H](Cc3ccncc3)NC(=O)CSC[C@@H](C(=O)N[C@@H](CC(N)=O)C(N)=O)NC(=O)[C@H](CCC(N)=O)NC(=O)[C@H](C(C)C)NC(=O)[C@H](CC3CCCCC3)NC(=O)[C@H](CCN)NC(=O)[C@@H](CC(C)C)NC(=O)[C@H](CCCN)NC(=O)[C@H](Cc3ccc(OCC(=O)O)cc3)NC(=O)[C@H](Cc3ccc(-c4ccccc4)cc3)NC(=O)[C@H](Cc3ccc(OCC(=O)O)cc3)NC2=O)c1` [Compound 2305] ({CH2CO}-[4Pal][Phe(4-COOH)]D[Phe(3-Me)]Y(Carboxymethyl)[Bip]Y(Carboxymethyl)[Orn][dL][Dab][Cha]VQCN-NH2; thioether N-14), for which the IC50 stood at 10.2 nM.
With `Cc1cccc(C[C@@H]2NC(=O)[C@H](CC(=O)O)NC(=O)[C@H](Cc3ccc(C(=O)O)cc3)NC(=O)[C@H](Cc3ccncc3)NC(=O)CSC[C@@H](C(=O)N[C@@H](CCN)C(N)=O)NC(=O)[C@H]([C@@H](C)O)NC(=O)[C@H](C(C)C)NC(=O)[C@H](CC3CCCCC3)NC(=O)[C@H](CCN)NC(=O)[C@@H](CC(C)C)NC(=O)[C@H](CCCN)NC(=O)[C@H](Cc3ccc(OCC(=O)O)cc3)NC(=O)[C@H](Cc3ccc(-c4ccccc4)cc3)NC(=O)[C@H](Cc3ccc(OCC(=O)O)cc3)NC2=O)c1` [Compound 2306] ({CH2CO}-[4Pal][Phe(4-COOH)]D[Phe(3-Me)]Y(Carboxymethyl)[Bip]Y(Carboxymethyl)[Orn][dL][Dab][Cha]VTC[Dab]-NH2; thioether N-14) the figure was 7.1 nM.

The IC50 is the point on the concentration scale where inhibition reaches its midpoint.
